Where a name gives a salt, the structure may show the parent alone.

For one experiment, the system named is Plasmodium falciparum parasite. Briefly: Whole cell assay: whole cell activity against the parasite. Format: cell-based.
Details: not given
The text has this:
Compounds can be evaluated for whole cell actvity against the Plasmadium falciparum parasite according to the procedure described in Sijwali S. and Rosenthal P. J., (2004) Proceedings of the National Academy of Sciences of the United States of America (PNAS) 101(13), 4384-4389 (see in particular "Measurement of Parasite Growth rates and Inhibitor Sensitivity" on page 4385); IC50 values can be calculated as described in Singh A. and Rosenthal P. J., (2001) Antimicrobial Agents and Chemotherapy 45(3), 949-951 (see in particular page 950, first column); synchronised parasites can be prepared as described in Divo A. A. et al., (1985) Protozool. 32, 59-64. 3) In vitro models to evaluate activity against bone metastasis
The term IC50 denotes the point on the concentration scale where inhibition reaches its midpoint. Low values mean greater potency, high ones weaker potency. `CC(=O)N1CCC(N(NC(=O)OC(C)(C)C)c2nc(C#N)ncc2Br)CC1` [Example 79, 1,1-dimethylethyl 2-(1-acetyl-4-plperidinyl)-2-(5-bromo-2-cyano-4-pyrimidinyl)hydrazinecarboxylate] had an IC50 of 15 to 150 nM.

Staying with this experiment, now noted: Plasmodium falciparum.
In the case of `CN1CCN(C(=O)C2CCN(Cc3cccc(C(=O)NN(c4nc(C#N)ncc4Br)C4CCCCC4)c3)CC2)CC1` [Example 23, N'-(5-bromo-2-cyano-4-pyrimidinyl)-N'-cyclohexyl-3-[{4-[(4-methyl-1-piperazinyl)carbonyl]-1-piperidinyl}methyl)benzohydrazide trifluoroacetate], the half-maximal inhibitory concentration (IC50) lay within 2.5 to 15 nM.

Compound `CN1CCN(Cc2ccc(C(=O)NN(c3nc(C#N)ncc3Br)C3CCCCC3)cc2)CC1` [Example 16, N'-(5-bromo-2-cyano-4-pyrimidinyl)-N'-cyclohexyl-4-[(4-methyl-1-piperazinyl)methyl]benzohydrazide trifluoroacetate] displayed an IC50 of 2.5 to 15 nM. Same read-out and setting: the value for `CC(C)N(Cc1ccc(C(=O)NN(c2nc(C#N)ncc2Cl)C2CCCC2)cc1)C(C)C` [Example 72, trifluoroacetate] was 2.5 to 15 nM; that for `CCN(Cc1ccc(C(=O)NN(c2nc(C#N)ncc2Cl)C2CCCC2)cc1)C(C)C` [Example 68, N'-(5-chloro-2-cyano-4-pyrimidinyl)-N'-cyclopentyl-4-{[ethyl(1-methylethyl)amino]methyl}benzohydrazide trifluoroacetate] was 2.5 to 15 nM; that for `CN(Cc1ccc(C(=O)NN(c2nc(C#N)ncc2Cl)C2CCCC2)cc1)C1CCCCC1` [Example 53, N'-(5-chloro-2-cyano-4-pyrimidinyl)-4-{[cyclohexyl(methyl)amino]methyl}-N'-cyclopentylbenzohydrazide trifluoroacetate] was 2.5 to 15 nM.

For `CN1CCCC(CN2CCN(Cc3ccc(C(=O)NN(c4nc(C#N)ncc4Br)C4CCOCC4)cc3)CC2)C1` (stereo not shown) [Example 31, N'-(5-Bromo-2-cyano-4-pyrimidinyl)-4-({4-[(1-methyl-3-pipendinyl)methyl]-1-piperazinyl}methyl)-N'-(tetrahydro-2H-pyran-4-yl)benzohydrazide trifluoroacetate], the IC50 lay in the range of 15 to 150 nM. `CN1CCC(CN2CCN(Cc3ccc(C(=O)NN(c4nc(C#N)ncc4Cl)C4CCOCC4)cc3)CC2)CC1` [Example 35, N'-(5-Chloro-2-cyano-4-pyrimidinyl)-4-({4-[(1-methyl-4-piperidiny)methyl]-1-piperazinyl}methyl)-N'-(tetrahydro-2H-pyran-4-yl)benzohydrazide trifluoroacetate] came in with an IC50 of 15 to 150 nM. Same read-out and setting: in the case of `N#Cc1ncc(Br)c(N(NC(=O)c2ccc(CN3CCC(O)CC3)cc2)C2CCCCC2)n1` [Example 21, N'-(5-bromo-2-cyano-4-pyrimidinyl)-N'-cyclohexyl-4-[(4-hydroxy-1-piperidinyl)methyl]benzohydrazide trifluoroacetate] it was 15 to 150 nM.

In the case of `CN(CCc1ccccc1)Cc1ccc(C(=O)NN(c2nc(C#N)ncc2Cl)C2CCCC2)cc1` [Example 62, N'-(5-chloro-2-cyano-4-pyrimidinyl)-N'-cyclopentyl-4-{[methyl(2-phenylethyl)amino]methyl}benzohydrazide trifluoroacetate], the IC50 lay in the range of 15 to 150 nM. Regarding `CN1CCN(C(=O)C2CCN(Cc3cccc(C(=O)NN(c4nc(C#N)ncc4Br)C4CCCC4)c3)CC2)CC1` [Example 12, N'-(5-bromo-2-cyano-4-pyrimidinyl)-N'-cyclopentyl-3-({4-[(4-methyl-1-piperazinyl)carbonyl]-1-piperidinyl}methyl)benzohydrazide trifluoroacetate], the IC50 was 2.5 to 15 nM. `N#Cc1ncc(Br)c(N(NC(=O)c2ccc(CN3CCC(N4CCOCC4)CC3)cc2)C2CCCCC2)n1` [Example 18, N'-(5-bromo-2-cyano-4-pyrimidinyl)-N'-cyclohexyl-4-{[4-(4-morpholinyl)-1-piperidinyl]methyl}benzohydrazide trifluoroacetate] had an IC50 of 15 to 150 nM. Still for that read-out and setting: in the case of `CN(CCC1OCCO1)Cc1ccc(C(=O)NN(c2nc(C#N)ncc2Cl)C2CCCC2)cc1` [Example 61, N'-(5-chloro-2-cyano-4-pyrimidinyl)-N'-cyclopentyl-4-{[[2-(1,3-dioxolan-2-yl)ethyl](methyl)amino]methyl}benzohydrazide trifluoroacetate] it was 15 to 150 nM; in that of `CN1CCCC(CN2CCN(Cc3cccc(C(=O)NN(c4nc(C#N)ncc4Br)C4CCCC4)c3)CC2)C1` (stereo not shown) [Example 14, N'-(5-bromo-2-cyano-4-pyrimidinyl)-N'-cyclopentyl-3-({4-[(1-methyl-3-piperidinyl)methyl]-1-piperazinyl}methyl)benzohydrazide trifluoroacetate], 2.5 to 15 nM.

As to `CN1CCN(Cc2ccc(-c3ccc(C(=O)NN(c4nc(C#N)ncc4Br)C4CCCC4)cn3)cc2)CC1` [Example 46, N'-(5-bromo-2-cyano-4-pyrimidinyl)-N'-cyclopentyl-6-{4-[(4-methyl-1-piperazinyl)methyl]phenyl}-3-pyridinecarbohydrazide trifluoroacetate], the IC50 was 2.5 to 15 nM.

In the case of `CN1CCN(Cc2cccc(-c3cncc(C(=O)NN(c4nc(C#N)ncc4Br)C4CCCCC4)c3)c2)CC1` [Example 47, N'-(5-bromo-2-cyano-4-pyrimidinyl)-N'-cyclohexyl-5-{3-[(4-methyl-1-piperazinyl)methyl]phenyl}-3-pyridinecarbohydrazide trifluoroacetate], the IC50 was 2.5 to 15 nM. The compound `CN1CCN(C(=O)C2CCN(Cc3ccc(C(=O)NN(c4nc(C#N)ncc4Br)C4CCCC4)cc3)CC2)CC1` [Example 9, N'-(5-bromo-2-cyano-4-pyrimidinyl)-N'-cyclopentyl-4-({4-[(4-methyl-1-piperazinyl)carbonyl]-1-piperidinyl}methyl)benzohydrazide trifluoroacetate] came in with an IC50 of 2.5 to 15 nM. `CCCCCCN(C)Cc1ccc(C(=O)NN(c2nc(C#N)ncc2Cl)C2CCCC2)cc1` [Example 56, N'-(5-chloro-2-cyano-4-pyrimidinyl)-N'-cyclopentyl-4-{[hexyl(methyl)amino]methyl}benzohydrazide trifluoroacetate] came in with an IC50 of 15 to 150 nM. The compound `CN(CCCc1ccccc1)Cc1ccc(C(=O)NN(c2nc(C#N)ncc2Cl)C2CCCC2)cc1` [Example 64, N'-(5-chloro-2-cyano-4-pyrimidinyl)-N'-cyclopentyl-4-{[methyl(3-phenylpropyl)amino]methyl}benzohydrazide trifluoroacetate] showed an IC50 of 15 to 150 nM. `CN1CCN(Cc2ccc(-c3ccc(C(=O)NN(c4nc(C#N)ncc4Br)C4CCCCC4)cn3)cc2)CC1` [Example 44, N'-(5-bromo-2-cyano-4-pyrimidinyl)-N'-cyclohexyl-6-{4-[(4-methyl-1-piperazinyl)methyl]phenyl}-3-pyridinecarbohydrazide trifluoroacetate] gave an IC50 of 15 to 150 nM. The same measure, in the same setting: the value for `CN1CCN(Cc2ccc(-c3cncc(C(=O)NN(c4nc(C#N)ncc4Br)C4CCCC4)c3)cc2)CC1` [Example 45, N'-(5-bromo-2-cyano-4-pyrimidinyl)-N'-cyclopentyl-5-{4-[(4-methyl-1-piperazinyl)methyl]phenyl}-3-pyridinecarbohydrazide trifluoroacetate] was 15 to 150 nM; that for `CN(CC(=O)N(C)C)Cc1ccc(C(=O)NN(c2nc(C#N)ncc2Cl)C2CCCC2)cc1` [Example 60, N^2-[(4-{[2-(5-chloro-2-cyano-4-pyrimidinyl)-2-cyclopentylhydrazino]carbonyl}phenyl)methyl]-N^1,N^1,N^2-trimethylglycinamide trifluoroacetate] was 15 to 150 nM. Take `CN1CCN(C(=O)C2CCN(Cc3ccc(C(=O)NN(c4nc(C#N)ncc4Br)C4CCCCC4)cc3)CC2)CC1` [Example 22, N'-(5-bromo-2-cyano-4-pyrimidinyl)-N'-cyclohexyl-4-({4-[(4-methyl-1-piperazinyl)carbonyl]-1-piperidinyl}methyl)benzohydrazide trifluoroacetate]: the IC50 lay in the range of 2.5 to 15 nM. `CC1CCC(N(NC(=O)c2ccc(CN3CCN(C)CC3)cc2)c2nc(C#N)ncc2Br)C1` (mixture of isomers) [Example 26, N'-(5-bromo-2-cyano-4-pyrimidinyl)-N'-(3-methylcyclopentyl)-4-[(4-methyl-1-piperazinyl)methyl]benzohydrazide trifluoroacetate]: the IC50 fell in the range of 15 to 150 nM.

Regarding `C[C@@H]1CCC[C@H]1N(NC(=O)c1ccc(CN2CCN(C)CC2)cc1)c1nc(C#N)ncc1Br` (racemic) [Example 3, N'-(5-bromo-2-cyano-4-pyrimidinyl)-N'-[(1R,2R+1S,2S)-2-methylcyclopentyl]-4-[(4-methyl-1-piperazinyl)methyl]benzohydrazide trifluoroacetate], the IC50 was 2.5 to 15 nM.

Regarding `CCN(Cc1ccc(C(=O)NN(c2nc(C#N)ncc2Cl)C2CCCC2)cc1)C1CCCCC1` [Example 69, N'-(5-chloro-2-cyano-4-pyrimidinyl)-4-{[cyclohexyl(ethyl)amino]methyl}-N'-cyclopentylbenzohydrazide trifluoroacetate], the IC50 lay within 2.5 to 15 nM. On the same count and under the same terms, in the case of `CN1CCN(C2CCN(Cc3ccc(C(=O)NN(c4nc(C#N)ncc4Br)C4CCCCC4)cc3)CC2)CC1` [Example 17, N'-(5-bromo-2-cyano-4-pyrimidinyl)-N'-cyclohexyl-4-{[4-(4-methyl-1-piperazinyl)-1-piperidinyl]methyl}benzohydrazide trifluoroacetate] it was 2.5 to 15 nM. Regarding `CN(Cc1ccc(C(=O)NN(c2nc(C#N)ncc2Cl)C2CCCC2)cc1)C1CCC2(CC1)OCC(C)(C)CO2` [Example 65, N'-(5-chloro-2-cyano-4-pyrimidinyl)-N'-cyclopentyl-4-{[(3,3-dimethyl-1,5-dioxaspiro[5.5]undec-9-yl)(methyl)amino]methyl}benzohydrazide trifluoroacetate], the IC50 is 15 to 150 nM.

These data come from patent EP2030621A1, “Novel substituted pyrimidines as cysteine protease inhibitors” (GLAXO GROUP LIMITED, priority 2007, dated 2009).
